Consider one compound from PMC10493395, “Optimization of a small molecule inhibitor of secondary nucleation in α-synuclein aggregation” (Frontiers in Molecular Biosciences, 2023).

For orientation: Kd means a measure of binding affinity in units of concentration.

In the experiment the target is T1, α-synuclein (Homo sapiens, UniProt P37840).
T1 construct: gene SNCA; preformed fibrils of recombinant wild-type α-synuclein
The experiment is described as follows: fibril ultracentrifugation depletion with LC-MS of unbound compound in the supernatant, dose-response fit (second estimate […] by varying fibril concentration). The experiment is classed as binding.

As to `O=C1NN(c2ccccc2)C(=O)C1=Cc1coc2ccc(Cl)cc2c1=O` [69.2, compound 69.2], the Kd was 6 ± 1 µM.
